# According to PMC7139549, “TLD1433 Photosensitizer Inhibits Conjunctival Melanoma Cells in Zebrafish Ectopic and Orthotopic Tumour Models” (Cancers, 2020):
# Where two headings read alike, the source gives them in different places.
# Test system: A375 cutaneous melanoma cell line
# Test: SRB cell viability assay, A375
# Format: cell-based, Human
# Description: TLD1433 is known to generate reactive oxygen species (ROS) with high quantum efficacy in many cancer cell lines. However, there is no report of the in vitro toxicity of this compound in eye melanoma (UM) cell lines. We determined the cell viability of three conjunctival melanoma cell lines (CRMM1, CRMM2 and CM2005.1), and three uveal melanoma cell lines (OMM1, OMM2.5, MEL270) in the presence of TLD1433, both in the dark or under green light irradiation (21 mW/cm^2, 19 J/cm^2, 520 nm, 15 min), and compared this viability to epidermoid carcinoma A431 and cutaneous melanoma A375 cell lines under the same conditions. […] The phototoxicity index (PI), defined as the ratio of the dark EC50 to the light EC50, was also calculated and represents the amplification of TLD1433 activity with a light trigger. […]
# Figure 2 Cell viability after TLD1433 treatment of eight tumour cell lines (CRMM1, CRMM2, CM2005.1, OMM1, OMM2.5, MEL270, A431, A375). […] The absorbance of Sulforhodamine B in solution was measured at 520 nm. […]
# At day 0, cells were detached using 1mL of trypsin, resuspended in 4 mL of media and transferred to a 15 mL corning falcon tube. Cells were counted using trypan blue and BioRad® TC20™ automated cell counter (Figure 11). […] Next day, the dye was dissolved using Tri-base (0.25%) and absorbance of SRB at 510 nm was recorded from each well using a Tecan plate reader. […]
structure (smiles),measurement,setting,value
Cc1ccnc(-c2cc(C)ccn2)c1.Cc1ccnc(-c2cc(C)ccn2)c1.[Cl-].[Cl-].[Ru+2].c1csc(-c2ccc(-c3ccc(-c4nc5c6cccnc6c6ncccc6c5[nH]4)s3)s2)c1 [TLD1433],EC50,"A375, dark, 24 h treatment, SRB, read-out: EC50, dark",> 5 µM
same,EC50,"A375, green light 520 nm, 15 min, 21 mW/cm^2, 19 J.cm^−2, DLI 24 h, read-out: EC50,light",0.05 µM
